Bridge positions count the residues as written; N and C are the ends. Square brackets hold non-standard residues; d marks the D form. Ends that are not written are not given here. BMB = 3,5-bis(mercaptomethyl)benzoic acid scaffold; 2Nal = N[C@@H](Cc1ccc2ccccc2c1)C(=O)O
Columns and labels:
HeLa cells = test: Flow cytometry cellular uptake of FITC-labeled peptides; format: cell-based; conditions: for mean fluorescence intensity (MFI): 5 μM FITC-labeled peptide; for mean fluorescence intensity (MFI) / higher cell entry efficiency than cFΦR4: 2 h; for higher cell entry efficiency than cFΦR4: 5 μM
Procedure: HeLa cells were cultured in six-well plates (5×10^5 cells per well) for 24 h. On the day of experiment, the cells were incubated with 5 μM FITC-labeled peptide in clear DMEM with 1% FBS at 37° C. for 2 h. The cells were washed with DPBS, detached from plate with 0.25% trypsin, diluted into clear DMEM containing 10% FBS, pelleted at 250 g for 5 min, washed once with DPBS and resuspended in DPBS containing 1% bovine serum albumin, and analyzed on a BD LSR II flow cytometer. Data were analyzed with Flowjo software (Tree Star).
To monitor their cellular uptake, peptides 2 and 3 were labeled with fluorescein isothiocyanate (FITC) on the side chain of a C-terminal lysine. […] Thus, bicyclic peptides 2 and 3 entered HeLa cells with 72% and 36% higher efficiencies, respectively, than cFΦR4 (SEQ ID NO.:72).
Peptides 4 and 5 were labeled with FITC at the side chain of a lysine added to their C-termini and their cellular entry was assessed by flow cytometry. […] Briefly, in the presence of an anti-glutathione-S-transferase (GST) antibody labeled with a fluorescence donor (Tb) and streptavidin labeled with a fluorescence acceptor (d2), binding of GST-NEMO to a biotinylated IKKβ fragment (amino acids 701-745) (B. Gao, et al., Biochemistry 2014, 53, 677) results in a resonance energy transfer. Addition of a NEMO inhibitor blocks the NEMO-IKKβ interaction and reduces the HTRF signal. […] IKKβ contains a phenylalanine at the same position (Phe-734). […] Thus, the phenylalanine in peptide 4 likely plays dual roles of cellular entry and NEMO binding.

[1] = tested on: TNFα-induced activation of NF-κB in NF-κB reporter (Luc)-HEK293 cells; test: NF-κB luciferase assay
Procedure: NF-κB reporter (Luc)-HEK293 cells were seeded in 96-well microplate in 45 μL of assay medium (DMEM, 10% FBS, and 1% penicillin/streptomycin, 1500 cells per well) and cultured overnight. Five μL of NEMO inhibitor in assay medium was added to cells and the cells were incubated for 2 h. Recombinant TNFα^3 in 5 μL of assay medium was added to the wells at the final concentration of 5 ng/mL. After 4 h of incubation, 55 μL of ONE-Step luciferase assay reagent was added to each well. Luminescence was measured after 10 min of incubation using a Tecan Infinite M1000 Pro microplate reader. Luciferase activities of TNFα unstimulated and stimulated cells were recorded as AU″ and AU^+, respectively. Luciferase activities of TNFα stimulated cells after incubating with different concentrations of NEMO inhibitors were recorded as AU^pep.
The ability of the bicyclic peptides to modulate the NEMO-IKK interaction inside the cell was assessed by monitoring the TNFα-induced activation of NF-κB.

NEMO-IKKβ interaction = target: T1, NEMO-IKKβ interaction (Homo sapiens, UniProt Q9Y6K9); test: HTRF assay of the NEMO-IKKβ interaction; format: binding; conditions: up to 100 μM peptide, 5 mM TCEP
T1 construct: transformed with a pGEX4T3-GST-NEMO(1-196) plasmid; made in house; host or cells: Escherichia coli BL21(DE3)
T1 sequence (Q9Y6K9 1-196): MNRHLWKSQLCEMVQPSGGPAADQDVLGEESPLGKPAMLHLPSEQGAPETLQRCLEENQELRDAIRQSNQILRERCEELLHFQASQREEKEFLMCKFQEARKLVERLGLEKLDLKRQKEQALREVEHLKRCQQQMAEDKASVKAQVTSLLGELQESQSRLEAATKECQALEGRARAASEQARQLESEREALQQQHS

mammalian cells = conditions: previously reported; cited from earlier work

Substance | mean fluorescence intensity (MFI) (HeLa cells) | higher cell entry efficiency than cFΦR4 (HeLa cells; relative to cFΦR4) [%] | effect on NF-κB signaling ([1]; at 20 μM) | inhibition of NF-κB signaling ([1]; highest concentration tested (40 μM)) [%] | MFI higher than that of cFΦR4 (HeLa cells; FITC-labeled peptide, relative to cFΦR4) [fold] | inhibition of the NEMO-IKKβ interaction (NEMO-IKKβ interaction) | cytosolic delivery efficiency (ratio of cytosolic over extracellular cargo concentration) (mammalian cells) [%]
2: bicyclic model peptide with CPP motif and mock cargo SASAS on BMB scaffold (cyclo(RRRR[2Nal]FCSASASCK); linker 7-13 via BMB (inferred)) [Peptide 2] | 5180 | 72 | – | – | – | – | –
5: control, similar to peptide 4 but two Ala residues in place of the two Trp residues (RRRR[2Nal]FCALDASALQC; linker 7-16 via BMB; not fully specified (C-terminus, bridges)) [Peptide 5] | – | – | no significant effect | ~10 | 2 | only minor inhibition | –
Cyclo(FΦRRRRQ) [cFΦR4, reference compound] | 3020 | – | – | – | – | – | 20
3: bicyclic model peptide with CPP motif and mock cargo SASAS on BMB scaffold (cyclo(SASASCF[2Nal]RRRRCK); linker 6-13 via BMB (inferred)) [Peptide 3] | 4100 | 36 | – | – | – | – | –
